In patent US8088804B2, “N-hydroxyamide derivatives possessing antibacterial activity” (Pfizer Inc., priority 2005, dated 2012):
In brackets after ≈: the same amount, converted by molar mass. Where two headings read alike, the source gives them in different places.

Assays:
P. ae LpxC enzyme = P. ae LpxC enzyme (Pseudomonas aeruginosa, UniProt P47205); assay: Enzyme inhibition testing (fluorescamine assay); type: biochemical; settings: for inhibition at 0.5 µg/mL: @0.5 μg/ml; for inhibition at 10 µg/mL: @10 μg/ml
P. ae LpxC enzyme, sequence (P47205 whole entry): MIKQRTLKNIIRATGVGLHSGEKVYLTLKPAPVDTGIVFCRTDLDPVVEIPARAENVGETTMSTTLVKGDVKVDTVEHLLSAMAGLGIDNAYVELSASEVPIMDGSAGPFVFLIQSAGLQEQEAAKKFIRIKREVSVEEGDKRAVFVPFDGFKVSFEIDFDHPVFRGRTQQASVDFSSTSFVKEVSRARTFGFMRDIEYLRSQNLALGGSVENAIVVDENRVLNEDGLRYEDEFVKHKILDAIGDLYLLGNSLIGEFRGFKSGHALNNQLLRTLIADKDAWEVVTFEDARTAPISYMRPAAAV
Experimental: Compounds were tested based on a published method (Wang W., 2001, Anal Biochem, 290, 338-46) with modifications. Enzyme assays were performed in the assay buffer (50 mM HEPES, pH8, 0.005% Brij, 50 μM ZnSO4, 1 mg/ml BSA) in 96-well V-bottom microtiter plates.
Stock solutions of test compounds and control antibiotics are prepared at 10 mg/ml in DMSO and are diluted in the assay buffer to 6-fold the final testing concentration. 5 μl compound dilution is distributed to the well of the assay plate. EDTA is used as positive control and the final concentration in assay is 12.5 mM.
P. ae LpxC enzyme dilution in the assay buffer is added to the compound in plate and pre-incubated with the compound at room temperature for 10 min. LpxC substrate is added to initiate the enzyme reaction and the final enzyme and substrate concentrations are 1.2 μM and 0.4 mM, respectively. The reaction continues at RT for 4 hrs before diluted with 45 μl of Borate buffer (0.4 M, pH9), followed by addition of 40 μl derivatization reagent (fluorescamine 2 mg/ml DMF). This mixture is incubated at RT for 10 min followed by addition of 150 μl DMF/H2O (1:1). The resulting solution is loaded onto Millipore filter unit (Microcon 10 k MWCO) and spun at 13 k rpm on bench top centrifuge for 15 min. 100 μl of this filtrate is transferred to a low fluorescence clear-bottom 96-well plate (Corning) and the fluorescence is detected at ex360 nm and em465 nm on a Tecan fluorescence plate reader. The percent inhibition is calculated based on EDTA produces 100% inhibition and negative control produces 100% activity.

H. influen. = assay: Susceptibility testing (MIC, CLSI microdilution); type: cell-based, Haemophilus influenzae; settings: 20 h at 35° C., unit assumed
Experimental: (§1) Compounds were tested following the microdilution method of CLSI (Clinical and Laboratory Standards Institute. Methods for dilution antimicrobial susceptibility tests for bacteria that grow aerobically; Approved standard—sixth edition. CLSI document M7-A5, CLSI, Wayne, Pa. 2003). Assays were performed in sterile plastic 96-well microtiter trays with round bottom wells (Greiner).
(§2) Stock solutions of test compounds and control antibiotics were prepared at 10 mg/ml in DMSO. Serial 2-fold dilutions of each drug were performed in a microtiter plate across each row using DMSO as solvent at 100-fold the desired final concentration. Wells in columns #1-11 contain drug and column #12 was kept as a growth control for the organism with no drug. Each well in the mother plate was diluted with sterile deionized water and DMSO, mixed, and volumes of 10 μl distributed to each well in the resulting assay plates.
(§3) Stock cultures were prepared using the Microbank™ method (Pro-Lab Diagnostics) and stored at −80° C. To propagate each strain, one bead was removed from the frozen vial and aseptically streaked onto Trypticase Soy Agar (Difco) which were incubated at 35° C. Standardized inocula were prepared using the direct colony suspension method according to CLSI guidelines (Clinical and Laboratory Standards Institute. Methods for dilution antimicrobial susceptibility tests for bacteria that grow aerobically; Approved standard—sixth edition. CLSI document M7-A5, CLSI, Wayne, Pa., 2003). Isolated colonies were selected from an 18-24 hr agar plate and resuspended in 0.9% sterile saline to match a 0.5 McFarland turbidity standard using a calorimeter (Vitek) at 80% of transmitance. The suspension was used within 15 minutes of preparation.
(§4) Mueller-Hinton Broth (MHB) (Difco) was prepared at a 1.1× concentration and supplemented with Ca++ and Mg++ as recommended by CLSI. For each organism, the standardized suspension was diluted 1:180 into appropriate growth medium in a sterile reservoir. After mixing, wells in the drug-containing assay plates were inoculated with a volume of 90 μl. Thus, for each minimum inhibitory concentration (MIC) determination, each well contains a final volume of 100 μl with an inoculum size of approximately 5×10^5 colony forming units (cfu)/ml and no more than 1% DMSO.
(§5) The completed microtiter plates were incubated 20 h at 35° C. in ambient air. Optical density of each well was determined at 600 nm using a VersaMax Microplate reader (Molecular Devices, Sunnyvale, Calif.). The MIC was defined as the lowest drug concentration causing complete suppression of visible bacterial growth.

K. pneu. = assay: Susceptibility testing (MIC, CLSI microdilution); type: cell-based, Klebsiella pneumoniae; settings: 20 h at 35° C., unit assumed
Experimental: as §1, §2, §3, §4, §5

P. aerug. (2) = assay: Susceptibility testing (MIC, CLSI microdilution); type: cell-based, Pseudomonas aeruginosa; settings: 20 h at 35° C., in µg/mL (unit assumed)
Experimental: as §1, §2, §3, §4, §5

P. aerug. Hypersuc = assay: Susceptibility testing (MIC, CLSI microdilution); type: cell-based, Pseudomonas aeruginosa; settings: 20 h at 35° C., Δ efflux, hypersusceptible strain, unit assumed
Experimental: as §1, §2, §3, §4, §5

E. coli tolC = assay: Susceptibility testing (MIC, CLSI microdilution); type: cell-based, Escherichia coli; settings: 20 h at 35° C., unit assumed
Experimental: as §1, §2, §3, §4, §5

E. coli (2) = assay: Susceptibility testing (MIC, CLSI microdilution); type: cell-based, Escherichia coli; settings: 20 h at 35° C., in µg/mL (unit assumed)
Experimental: as §1, §2, §3, §4, §5

[1] = @0.1 μg/ml, read-out: ENZYME (percent inhibition)
[2] = read-out: ENZYME (percent inhibition)

## CCCc1ccc(-c2ccc(C(=O)NC(C(=O)NO)C(F)(F)F)cc2)cc1 (racemic) [Compound 20, DL-4′-Propyl-biphenyl-4-carboxylic acid (2,2,2-trifluoro-1-hydroxycarbamoyl-ethyl)-amide]
P. ae LpxC enzyme; [1]
  inhibition at 0.1 µg/mL: < 10%
H. influen.
  MIC H. influen.: 0.25 µg/mL (≈ 0.657 µM)
K. pneu.
  MIC K. pneu.: 0.5 µg/mL (≈ 1.31 µM)
P. aerug. (2)
  MIC P. aerug. (2): 16
P. aerug. Hypersuc
  MIC P. aerug. Hypersuc: 1 µg/mL (≈ 2.63 µM)
E. coli tolC
  MIC E. coli tolC: 0.25 µg/mL (≈ 0.657 µM)
E. coli (2)
  MIC E. coli (2): 0.5

## CCCc1ccc(-c2ccc(C(=O)NC(CF)C(=O)NO)cc2)cc1 (racemic) [Compound 21, DL-4′-Propyl-biphenyl-4-carboxylic acid (2-fluoro-1-hydroxycarbamoyl-ethyl)-amide]
P. ae LpxC enzyme; [2]
  inhibition at 0.5 µg/mL: 77%
H. influen.
  MIC H. influen.: 8 µg/mL (≈ 23.2 µM)
K. pneu.
  MIC K. pneu.: 8 µg/mL (≈ 23.2 µM)
P. aerug. (2)
  MIC P. aerug. (2): >64
P. aerug. Hypersuc
  MIC P. aerug. Hypersuc: 16 µg/mL (≈ 46.5 µM)
E. coli tolC
  MIC E. coli tolC: 4 µg/mL (≈ 11.6 µM)
E. coli (2)
  MIC E. coli (2): 16-32

## CCOc1ccc(-c2ccc(C(=O)NC(C(=O)NO)C(F)(F)F)cc2)cc1 (racemic) [Compound 22, DL-4′-Ethoxy-biphenyl-4-carboxylic acid (2,2,2-trifluoro-1-hydroxycarbamoyl-ethyl)-amide]
P. ae LpxC enzyme; [1]
  inhibition at 0.1 µg/mL: < 10%
H. influen.
  MIC H. influen.: 0.5 µg/mL (≈ 1.31 µM)
K. pneu.
  MIC K. pneu.: 1 µg/mL (≈ 2.62 µM)
P. aerug. (2)
  MIC P. aerug. (2): 16-32
P. aerug. Hypersuc
  MIC P. aerug. Hypersuc: 0.5 µg/mL (≈ 1.31 µM)
E. coli tolC
  MIC E. coli tolC: 0.25 µg/mL (≈ 0.654 µM)
E. coli (2)
  MIC E. coli (2): 2

## O=C(NC(C(=O)NO)C(F)(F)F)c1ccc(-c2cc(F)cc(F)c2)cc1 (racemic) [Compound 23, DL-3′,5′-Difluoro-biphenyl-4-carboxylic acid (2,2,2-trifluoro-1-hydroxycarbamoyl-ethyl)-amide]
P. ae LpxC enzyme; [1]
  inhibition at 0.1 µg/mL: 24%
H. influen.
  MIC H. influen.: 16 µg/mL (≈ 42.8 µM)
K. pneu.
  MIC K. pneu.: 16 µg/mL (≈ 42.8 µM)
P. aerug. (2)
  MIC P. aerug. (2): 8
P. aerug. Hypersuc
  MIC P. aerug. Hypersuc: 2 µg/mL (≈ 5.34 µM)
E. coli tolC
  MIC E. coli tolC: 8 µg/mL (≈ 21.4 µM)
E. coli (2)
  MIC E. coli (2): 16

## O=C(NC(C(=O)NO)C(F)(F)F)c1ccc(-c2ccsc2)cc1 (racemic) [Compound 24, DL-4-Thiophen-3-yl-N-(2,2,2-trifluoro-1-hydroxycarbamoyl-ethyl)-benzamide]
P. ae LpxC enzyme; [1]
  inhibition at 0.1 µg/mL: 13%
H. influen.
  MIC H. influen.: 8 µg/mL (≈ 23.2 µM)
K. pneu.
  MIC K. pneu.: > 64 µg/mL
P. aerug. (2)
  MIC P. aerug. (2): 32
P. aerug. Hypersuc
  MIC P. aerug. Hypersuc: 2 µg/mL (≈ 5.81 µM)
E. coli tolC
  MIC E. coli tolC: 16 µg/mL (≈ 46.5 µM)
E. coli (2)
  MIC E. coli (2): >64

## O=C(NC(C(=O)NO)C(F)(F)F)c1ccc(-c2ccc(F)cc2)cc1 (racemic) [Compound 25, DL-4′-Fluoro-N-(1,1,1-trifluoro-3-(hydroxyamino)-3-oxopropan-2-yl)biphenyl-4-carboxamide]
P. ae LpxC enzyme; [1]
  inhibition at 0.1 µg/mL: 12%
H. influen.
  MIC H. influen.: 4 µg/mL (≈ 11.2 µM)
K. pneu.
  MIC K. pneu.: 16 µg/mL (≈ 44.9 µM)
P. aerug. (2)
  MIC P. aerug. (2): 8-16
P. aerug. Hypersuc
  MIC P. aerug. Hypersuc: 2 µg/mL (≈ 5.61 µM)
E. coli tolC
  MIC E. coli tolC: 4 µg/mL (≈ 11.2 µM)
E. coli (2)
  MIC E. coli (2): 8

## CCCc1ccc(-c2ccc(C(=O)N3CS(=O)(=O)CC3C(=O)NO)cc2)cc1 (stereo in doubt) [Compound 17, (S)-N-Hydroxy-3-(4′-propylbiphenylcarbonyl)thiazolidine-sulfone-4-carboxamide]
P. ae LpxC enzyme; [2]
  inhibition at 0.5 µg/mL: 98%
H. influen.
  MIC H. influen.: > 64 µg/mL
K. pneu.
  MIC K. pneu.: 16 µg/mL (≈ 39.8 µM)
P. aerug. (2)
  MIC P. aerug. (2): 16
P. aerug. Hypersuc
  MIC P. aerug. Hypersuc: 2 µg/mL (≈ 4.97 µM)
E. coli tolC
  MIC E. coli tolC: 8 µg/mL (≈ 19.9 µM)

## CCCc1ccc(-c2ccc(C(=O)NC(CSC)C(=O)NO)cc2)cc1 (stereo in doubt) [Compound 28, (S)-N-(1-(Hydroxyamino)-3-(methylthio)-1-oxopropan-2-yl)-4′-propylbiphenyl-4-carboxamide]
P. ae LpxC enzyme; [1]
  inhibition at 0.1 µg/mL: 13%
H. influen.
  MIC H. influen.: > 64 µg/mL
K. pneu.
  MIC K. pneu.: > 64 µg/mL
P. aerug. (2)
  MIC P. aerug. (2): >64
P. aerug. Hypersuc
  MIC P. aerug. Hypersuc: > 64 µg/mL
E. coli tolC
  MIC E. coli tolC: 32 µg/mL (≈ 85.9 µM)
E. coli (2)
  MIC E. coli (2): >64

## CCCc1ccc(-c2ccc(C(=O)N3CC[C@H](N)[C@H]3C(=O)NO)cc2)cc1 [Compound 2]
P. ae LpxC enzyme; [2]
  inhibition at 0.5 µg/mL: 65%
H. influen.
  MIC H. influen.: 16 µg/mL (≈ 43.5 µM)
K. pneu.
  MIC K. pneu.: 64 µg/mL (≈ 174 µM)
P. aerug. Hypersuc
  MIC P. aerug. Hypersuc: 64 µg/mL (≈ 174 µM)
E. coli tolC
  MIC E. coli tolC: 32 µg/mL (≈ 87.1 µM)
E. coli (2)
  MIC E. coli (2): 64

## CCCc1ccc(-c2ccc(C(=O)N3CC[C@H](OC)[C@H]3C(=O)NO)cc2)cc1 [Compound 7]
P. ae LpxC enzyme; [2]
  inhibition at 10 µg/mL: 84%
H. influen.
  MIC H. influen.: > 64 µg/mL
K. pneu.
  MIC K. pneu.: 64 µg/mL (≈ 167 µM)
P. aerug. (2)
  MIC P. aerug. (2): >64
P. aerug. Hypersuc
  MIC P. aerug. Hypersuc: 64 µg/mL (≈ 167 µM)
E. coli tolC
  MIC E. coli tolC: 64 µg/mL (≈ 167 µM)

## CCCc1ccc(-c2ccc(C(=O)N3C[C@H](N)[C@@H](O)[C@H]3C(=O)NO)cc2)cc1 [Compound 12]
P. ae LpxC enzyme; [2]
  inhibition at 0.5 µg/mL: 95%
H. influen.
  MIC H. influen.: 32 µg/mL (≈ 83.5 µM)
K. pneu.
  MIC K. pneu.: > 64 µg/mL
P. aerug. Hypersuc
  MIC P. aerug. Hypersuc: 8 µg/mL (≈ 20.9 µM)
E. coli tolC
  MIC E. coli tolC: > 64 µg/mL
E. coli (2)
  MIC E. coli (2): >64

## O=C(NO)c1cocc1C(=O)Nc1cccc(SC(F)(F)F)c1 [Compound 32]
P. ae LpxC enzyme; [2]
  inhibition at 10 µg/mL: < 10%
H. influen.
  MIC H. influen.: > 64 µg/mL
K. pneu.
  MIC K. pneu.: > 64 µg/mL
P. aerug. (2)
  MIC P. aerug. (2): >64
P. aerug. Hypersuc
  MIC P. aerug. Hypersuc: > 64 µg/mL
E. coli tolC
  MIC E. coli tolC: 64 µg/mL (≈ 185 µM)

## O=C(NO)[C@H]1N(C(=O)c2ccc(-c3cc(F)cc(F)c3)cc2)CCS1(=O)=O [Compound 36, (S)-3-(3′,5′-Difluorobiphenylcarbonyl)-N-hydroxythiazolidinesulfone-2-carboxamide]
P. ae LpxC enzyme; read-out: ENZYME (percent inhibition), @0.1 μg/ml
  inhibition at 0.1 µg/mL: 8%
H. influen.
  MIC H. influen.: > 64 µg/mL
K. pneu.
  MIC K. pneu.: > 64 µg/mL
P. aerug. Hypersuc
  MIC P. aerug. Hypersuc: 8 µg/mL (≈ 20.2 µM)
E. coli tolC
  MIC E. coli tolC: 0.125 µg/mL (≈ 0.315 µM)
E. coli (2)
  MIC E. coli (2): >64

## CCCc1ccc(-c2ccc(C(=O)N3CC[C@@H](O)[C@H]3C(=O)NO)cc2)cc1 [Compound 39]
P. ae LpxC enzyme; @1 μg/ml, read-out: ENZYME (percent inhibition)
  inhibition at 1 µg/mL: 95.2%
H. influen.
  MIC H. influen.: > 64 µg/mL
K. pneu.
  MIC K. pneu.: > 64 µg/mL
P. aerug. Hypersuc
  MIC P. aerug. Hypersuc: 4 µg/mL (≈ 10.9 µM)
E. coli tolC
  MIC E. coli tolC: 64 µg/mL (≈ 174 µM)
E. coli (2)
  MIC E. coli (2): >64
